Literature values as cited in patent US20100137292A1, “Pharmaceutical formulations of meloxicam” (SANOVEL ILAC SANAYI VE TICARET A.S., priority 2008, published 2010).

SMILES: Cc1cnc(NC(=O)C2=C(O)c3ccccc3S(=O)(=O)N2C)s1 [Meloxicam, 4-hydroxy-2-methyl-N-(5-methyl-2-thiazolyl)-2H-1,2-benzothiazine-3-carboxamide-1,1-dioxide]
- Solubility in alcohol (alcohol): very slightly soluble
- Solubility in water (water): practically insoluble
